Here are results for seven molecules from patent EP4635958A1, “PYRIMIDINE-CONTAINING POLYCYCLIC DERIVATIVE INHIBITOR, AND PREPARATION METHOD THEREFOR AND USE THEREOF” (Shanghai Hansoh Biomedical Co., Ltd., priority 2022, dated 2024).

Where a name gives a salt, the structure may show the parent alone. Read-outs that look alike come from different tables or passages of the source.

One series concerns GP2D. Description: Inhibition of proliferation of KRAS G12D mutant tumor cell line GP2D (CellTiter-Glo). The note with it: read-out: GP2D IC50.
Series [1] can be described thus: Pharmacokinetic determination in rats (IV and PO, plasma, LCMS/MS). The note with it: male SD rats; for F: PO 30 mg/kg vs IV 1 mg/kg; for AUC(0-inf): read-out: AUCo-∞; for clearance: read-out: CL; for half-life: read-out: T1/2 (converted). Format: in vivo, SD rats. The method in brief: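 Male SD rats (3/group), fasted overnight, dosed PO at 30 mg/kg in 10% Captisol/50 mM citrate pH 5.0 or IV at 1 mg/kg in 5% DMSO/10% Solutol HS15/85% PBS. Jugular plasma (EDTA-2K) sampled predose to 24 h; analysed by LCMS/MS.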

Series [2] in a line: Pharmacokinetic determination in mice (IV and PO, plasma, LCMS/MS). Format: in vivo, Balb/c mice. The note with it: for AUC(0-inf) / C0 / clearance / half-life / Cmax / Tmax: mouse, in vivo, plasma; for C0: read-out: C0; for clearance: read-out: CL; for half-life: read-out: T1/2 (converted); for Cmax: read-out: Cmax; for Tmax: read-out: Tmax. The method in brief: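 Male Balb/c mice, fasted overnight (n=3 per route): PO 30 mg/kg in 10% Captisol/50 mM citrate pH 5.0, or IV 1 mg/kg in 5% DMSO/10% Solutol HS15/85% PBS. Orbital blood sampled predose to 24 h; EDTA plasma analysed by LC-MS/MS.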

A short description of series [3]: Plasma stability test, human plasma.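 On all read-outs here: test compound incubated in human plasma, quantified by LC-MS/MS (positive-ion ESI, MRM) against an internal standard.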 The note with it: Human plasma, 37°C; for half-life: read-out: t1/2 (converted). In kind it is in vitro ADME.
Protocol: Liquid chromatography-mass spectrometer, centrifuge, vortexer, pipette, continuous dispenser, 96-well plate, 50% methanol aqueous solution, acetonitrile solution containing internal standard, blank matrix (plasma of rat, dog, or human), Propantheline (propantheline bromide), Mevinolin (lovastatin), and test compound.
After whole blood was collected from animals or humans, it was placed in a test tube containing an anticoagulant and centrifuged at 3500 rpm for 10 min to collect the upper pale yellow plasma.
The compound was weighed and the stock solution was formulated with DMSO and the working solution was formulated with 100 mM phosphate buffer.
• Instrument: API4000 liquid chromatography-mass spectrometer, AB Company, USA; • the ion source was electrospray ionization source (ESI); • drying gas (N2) temperature was 500°C; • electrospray voltage was 5500V; • the detection method was positive ion detection; • the scanning method was selected reaction monitoring (MRM); • the scanning time was 0.1s.
Setting [4] is: IV, 1 mg/kg, overnight fasting, plasma.
[5] abbreviates: PO, 30 mg/kg, overnight fasting, plasma.
Setting [6] is: rat, in vivo, IV, 1 mg/kg, overnight fasting, plasma.
Setting [7] is: rat, in vivo, IV, 1 mg/kg, overnight fasting, plasma, read-out: C0.
[8] abbreviates: rat, in vivo, PO, 30 mg/kg, overnight fasting, plasma.
[9] abbreviates: rat, in vivo, PO, 30 mg/kg, overnight fasting, plasma, read-out: Cmax.
[10] abbreviates: rat, in vivo, PO, 30 mg/kg, overnight fasting, plasma, read-out: Tmax.
[11] abbreviates: Balb/c mice, intravenously (IV), 1 mg/kg, read-out: AUCo-∞.
The mark [12] stands for this setting: Balb/c mice, intravenously (IV), 1 mg/kg.
Where [13] appears, read: PO, 30 mg/kg, male Balb/c mice, overnight fasting, read-out: AUC0-∞.
[14] abbreviates: PO, 30 mg/kg, male Balb/c mice, overnight fasting.

Regarding “4-((5S,5aS,6R,9S)-12-((1-((((R)-4-(difluoromethylene)-2-methylpiperidin-1-yl)methyl)cyclopropyl)methoxy)-1-fluoro-5-(methyl-d3)-5a,6,7,8,9,10-hexahydro-5H-4-oxa-3,10a,11,13,14-pentaaza-6,9-methylnaphtho[1,8-ab]hept-2-yl)-5-ethynyl-6-fluoronaphthalen-2-ol [Example 162]”, the IC50 in the series with GP2D (proliferation, about 72 h, CellTiter-Glo) stood at 0.2 nM. In series [1] (setting [4]), the “AUCo-∞” value turned out to be 514 ng·h/mL, the C0 is given as 438 ng/mL, the CL was 32.4 mL/min/kg and the T1/2 was 10.8 h. In addition, the F in series [1] was found to be 10.3%. Also, in series [1] (setting [5]), the “AUCo-∞” value was 1591 ng·h/mL, the Cmax came out at 89 ng/mL, the T1/2 worked out at 10.5 h and the Tmax came out at 4.0 h.
For the molecule `C#Cc1c(F)ccc2cc(O)cc(-c3nc4c5c(nc(OCC6(CN7CCC(=NOC)CC7)CC6)nc5c3F)N3C[C@H]5CC[C@H](N5)[C@H]3[C@H](C)O4)c12` [Example 35-1, 1-((1-((((5S,5aS,6S,9R)-2-(8-ethynyl-7-fluoro-3-hydroxynaphthalen-1-yl)-1-fluoro-5-methyl-5a,6,7,8,9,10-hexahydro-5H-4-oxa-3,10a,11,13,14-pentaaza-6,9-methylenenaphtho[1,8-ab]heptalen-12-yl)oxo)methyl)cyclopropyl)methyl)piperidin-4-one O-methyloxime formate], in the series on GP2D (Homo sapiens, GP2d, 72 h), the IC50 was 0.21 nM. This molecule yielded a F in series [1] of 3.5%. For the same molecule, the AUC(0-inf) in series [1] (setting [6]) is 571 ng·h/mL; in series [1] (setting [8]), 601 ng·h/mL; in series [2] (setting [11]), 144 ng·h/mL. Further, the C0 in series [1] (setting [7]) was 2810 ng/mL; in series [2] (setting [12]), 693 ng/mL. In addition, the results for the clearance in series [1] (setting [6]) and in series [2] (setting [12]) were 29.2 mL/min/kg and 116 mL/min/kg, respectively. Moreover, the half-life in series [1] (setting [6]) is 5.7 h; in series [1] (setting [8]), 3.4 h; in series [2] (setting [12]), 3.2 h. The Cmax in series [1] (setting [9]) worked out at 108 ng/mL. Moreover, in series [1] (setting [10]), the Tmax was determined as 2 h.
On to `C#Cc1c(F)ccc2cc(O)cc(-c3nc4c5c(nc(OCC6(CN7CCC(=CF)CC7)CC6)nc5c3F)N3C[C@H]5CC[C@H](N5)[C@H]3[C@H](C)O4)c12` [Example 129, 5-ethynyl-6-fluoro-4-((5S,5aS,6S,9R)-1-fluoro-12-((1-((4-(fluoromethylene)piperidin-1-yl)methyl)cyclopropyl)methoxy)-5-methyl-5a,6,7,8,9,10-hexahydro-5H-4-oxa-3,10a,11,13,14-pentaaza-6,9-methylnaphtho[1,8-ab]hept-2-yl)naphthalen-2-ol], for which, in the series on GP2D (Homo sapiens, GP2d, 72 h), the IC50 was determined as 0.17 nM. In series [3], the t1/2 result is on record as “∞”, the “Remaining rate (%) 0 min” value is given as 100.00%, the “Remaining rate (%) 15 min” value is recorded as 109.00% and the “Remaining rate (%) 30 min” value worked out at 97.59%. Further, in series [3], the “Remaining rate (%) 60 min” value worked out at 101.54% and the “Remaining rate (%) 120 min” value came to 105.91%. The molecule also displayed a F in series [1] of 5.4%. Besides, in series [1] (setting [6]), the AUC(0-inf) was determined as 578 ng·h/mL, the clearance stood at 28.8 mL/min/kg and the half-life was 11.7 h. In addition, in series [1] (setting [7]), the C0 came to 2120 ng/mL. For the same molecule, in series [1] (setting [8]), the AUC(0-inf) was 938 ng·h/mL and the half-life is 9.6 h. The Cmax in series [1] (setting [9]) stood at 103 ng/mL. The Tmax in series [1] (setting [10]) turned out to be 1 h.
Regarding `[2H]C([2H])([2H])[C@@H]1Oc2nc(-c3cc(O)cc4ccc(F)c(C#C)c34)c(F)c3nc(OCC4(CN5CCC(=CF)CC5)CC4)nc(c23)N2C[C@H]3CC[C@H](N3)[C@@H]12` [Example 164], the 50% inhibitory concentration (IC50) with GP2D (Homo sapiens, GP2d, 72 h) is 0.32 nM. Further, in series [3], the “Remaining rate (%) 0 min” value was determined as 100.00%, the “Remaining rate (%) 15 min” value is 97.48%, the “Remaining rate (%) 30 min” value came out at 91.02% and the “Remaining rate (%) 60 min” value is on record as 93.68%. Also, in series [3], the “Remaining rate (%) 120 min” value came out at 89.66% and the half-life is 30.3 h. Also, in series [1] (setting [6]), the AUC(0-inf) worked out at 774 ng·h/mL, the clearance came to 21.5 mL/min/kg and the half-life was 17.6 h. The C0 in series [1] (setting [7]) was 838 ng/mL. Moreover, in series [1] (setting [8]), the AUC(0-inf) was found to be 1580 ng·h/mL and the half-life is 14 h. Further, the Cmax in series [1] (setting [9]) was found to be 135 ng/mL. Also, in series [1] (setting [10]), the Tmax is 2 h.
As to `[2H]C([2H])(Oc1nc2c3c(nc(-c4cc(O)cc5ccc(F)c(C#C)c45)c(F)c3n1)O[C@@H](C)[C@@H]1[C@@H]3CC[C@H](CN21)N3)C1(C([2H])([2H])N2CCC(=CF)CC2)CC1` [Example 291, 5-ethynyl-6-fluoro-4-((5S,5aS,6S,9R)-1-fluoro-12-((1-((4-(fluoromethylene)piperidin-1-yl)methyl-d2)cyclopropyl)methoxy-d2)-5-methyl-5a,6,7,8,9,10-hexahydro-5H-4-oxa-3,10a,11,13,14-pentaaza-6,9-methylnaphtho[1,8-ab]hept-2-yl)naphthalen-2-ol], the IC50 with GP2D (Homo sapiens, GP2d, 72 h) came out at 0.15 nM. Moreover, in series [3], the “Remaining rate (%) 0 min” value is 100.00%, the “Remaining rate (%) 15 min” value is on record as 102.43%, the “Remaining rate (%) 30 min” value was 95.46% and the “Remaining rate (%) 60 min” value was 105.44%. Besides, in series [3], the “Remaining rate (%) 120 min” value came to 96.68% and the half-life was 115 h.
Regarding `CON=C1CCN(CC2(COc3nc4c5c(nc(-c6cc(N)cc(Cl)c6C(F)(F)F)c(F)c5n3)O[C@@H](C)[C@@H]3[C@@H]5CC[C@H](CN43)N5)CC2)CC1` [Example 337, 1-((1-((((5S,5aS,6S,9R)-2-(5-amino-3-chloro-2-(trifluoromethyl)phenyl)-1-fluoro-5-methyl-5a,6,7,8,9,10-hexahydro-5H-4-oxa-3,10a,11,13,14-pentaaza-6,9-methylnaphtho[1,8-ab]heptene-12-yl)oxy)methyl)cyclopropyl)methyl)piperidin-4-one O-methyloxime], in the series with GP2D (Homo sapiens, GP2d, 72 h), the IC50 came to 0.11 nM. Moreover, the values for the AUC(0-inf) in series [1] (setting [8]) and in series [2] (setting [13]) were 374 ng·h/mL and 632 ng·h/mL, respectively. In addition, the Cmax came out at 41 ng/mL in series [1] (setting [9]) and 204 ng/mL in series [2] (setting [14]). For the same molecule, the half-life was 4.2 h in series [1] (setting [8]) and 1.7 h in series [2] (setting [14]). Further, the results for the time to peak (Tmax) in series [1] (setting [10]) and in series [2] (setting [14]) were 4 h and 1 h, respectively.
With `[2H]C([2H])([2H])[C@@H]1Oc2nc(-c3cc(N)cc(Cl)c3C(F)(F)F)c(F)c3nc(OCC4(CN5CCC(=NOC)CC5)CC4)nc(c23)N2C[C@H]3CC[C@H](N3)[C@@H]12` [Example 339], the IC50 in the series on GP2D (Homo sapiens, GP2d, 72 h) stood at 0.1 nM. Also, the F in series [1] came out at 6.6%; in series [2] (PO 30 mg/kg vs IV 1 mg/kg, male Balb/c mice), 13.8%. Further, the AUC(0-inf) in series [1] (setting [6]) worked out at 98 ng·h/mL; in series [1] (setting [8]), 220 ng·h/mL; in series [2] (setting [11]), 133 ng·h/mL; in series [2] (setting [13]), 476 ng·h/mL. Further, the figures for the C0 in series [1] (setting [7]) and in series [2] (setting [12]) were 174 ng/mL and 188 ng/mL, respectively. In addition, the clearance was 170 mL/min/kg in series [1] (setting [6]) and 125 mL/min/kg in series [2] (setting [12]). Also, the half-life in series [1] (setting [6]) was 2.6 h; in series [1] (setting [8]) it was 3 h; in series [2] (setting [12]), 4.8 h; in series [2] (setting [14]), 1.8 h. In addition, the Cmax in series [1] (setting [9]) worked out at 43 ng/mL; in series [2] (setting [14]) it was 143 ng/mL. In addition, the Tmax in series [1] (setting [10]) is 2 h; in series [2] (setting [14]), 1 h.
